Results taken from patent US12497610B2, “Functional genomics using CRISPR-CAS systems for saturating mutagenesis of non-coding elements, compositions, methods, libraries and applications thereof” (THE BROAD INSTITUTE, INC., priority 2015, dated 2025).

Legend:
Assay type in all cases: cell-based, human
CUL3 = assay: ddPCR quantification of CUL3 expression in A375 cells transduced with individual sgRNAs; settings: for CUL3 expression: A375, relative to non-targeting sgRNAs, result in words; for decrease in CUL3 expression: A375, 7 days post-transduction, normalized to non-targeting sgRNAs
Text: Array Validation of Primary Screen Hits
For individual (array) validation of noncoding sgRNAs, Applicants first identified sgRNAs enriched in the top 5% of the library as given by the normalized log 2(Vemu/DMSO) read ratio. In order to have high confidence in these sgRNAs, Applicants used the minimum of the two infection replicates for the normalized log2 (Vemu/DMSO) read ratio. […] This ensures that putative noncoding functional elements were supported by the presence of at least 2 enriched sgRNAs. From this group, Applicants picked 25 sgRNAs distributed across different genomic regions for individual validation (see table S2 for a list of sgRNA sequences). Applicants also included 3 exon-targeting and 3 non-targeting sgRNAs to serve as positive and negative controls, respectively.
For each sgRNA, standard desalted short oligonucleotides (Integrated DNA Technologies) were annealed, phosphorylated and cloned into a lentiviral vector (lentiCRISPRv2, Addgene 52961) that contained Cas9 and an sgRNA cassette. For each sgRNA, A375 cells were transduced with lentiviral supernatants. After 24 hours, media was replaced with R10 with 1 ug/mL of puromycin. Viral volumes were titered such that 20-40% of cells survived after puromycin selection. After selection and expansion for 7 days in puromycin, cell were plated for DNA/RNA extraction, vemurafenib resistance, or ChIP assays.
RNA Extraction and ddPCR Quantification of CUL3 Expression
After 7 days of puromycin selection, A375 cells transduced with individual lentiCRISPRv2 sgRNAs were plated in 3 replicate wells (2×10^3 cells/well) in 96-well plates. After 4 days (70-90% confluent), RNA was extracted using a homemade version of a rapid lysis kit for quantitative PCR (similar to commercial “Cells-to-Ct”-style kits). This procedure (detailed below) enables rapid RNA extraction and qPCR/ddPCR readout from 96-well plates with minimal hands-on time.
Cells were first washed in 100 ul of chilled phosphate-buffered saline (PBS). Then, cells were incubated at room temperature for 8 minutes in 50 ul of Complete Lysis Buffer. The Complete Lysis Buffer consists of the Base Lysis Buffer with freshly added 100 ug/ml Proteinase K (Sigma P2308) and 300 U/mL DNase I (Sigma D2821). When adding DNase I, it is important to not vortex but mix only by gentle pipetting. The Base Lysis Buffer is made in RNAse-free water (ThermoFisher Scientific 10977015) with 10 mM Tris pH8 (Ambion AM9856), 0.5 mM MgCl2 (Sigma M1028), 0.44 mM CaCl2 (Sigma 21115), 10 uM DTT (Sigma 43816), 0.1% Triton X-114 (Calbiochem 648468), and 1.73 mN HCl (Sigma 318965) and should have a final pH of 7.8. The Base Lysis Buffer is stable at 4° C. for up to 6 months.
After the 8-minute incubation in Complete Lysis Buffer, 30 ul of the cell lysis was added to new PCR plates containing 3 ul of STOP buffer in each well to stop the lysis reaction. The STOP buffer is made in RNAse-free water with 1 mM Proteinase K inhibitor AAPF N-(Methoxysuccinyl)-Ala-Ala-Pro-Phe-chloromethyl ketone (SEQ ID NO: 174) (Millipore 539470), 90 mM EDTA (ThermoFisher Scientific 15575020), and 113 uM DTT (Sigma 43816). The final pH of the STOP buffer should be 8, adjusted appropriately with HCl and KOH. The STOP buffer is stable for up to 6 months at 20° C. The lysis reaction was mixed with the STOP buffer by pipetting up and down 5 times. Applicants then incubated the lysis and STOP buffer for at least 2 minutes but not more than 20 minutes. (Extra stopped lysis can be stored at −80° C. for up to 5 months.)
Applicants transferred 5 ul of the stopped lysis to new PCR plates with 20 ul of RT master mix. The RT master mix is from the RevertAid Reverse Transcriptase kit (ThermoFisher Scientific K1691) and is as described in the manufacturer's protocol but with an added oligo-dT primer. […]

[1] = tested on: sgRNA target sites near CUL3; assay: Deep sequencing after CRISPR mutagenesis (indel analysis at sgRNA target sites)
Experimental: Deep Sequencing after CRISPR Mutagenesis
After 7 days of puromycin selection, A375 cells transduced with individual lentiCRISPRv2 sgRNAs were plated in 2 replicate wells (2×10^3 cells/well) in 96-well plates. Cells were plated in either R10+DMSO or R10+vemurafenib (2 uM). After 4 days (70-90% confluent), Applicants extracted gDNA from all wells (Illumina/Epicentre QuickExtract QE09050) and performed amplification and deep sequencing as previously described (Shalem et al. 2014). Briefly, for each sgRNA target site, Applicants designed PCR primers to amplify genomic regions surrounding the site (100-200 bp amplicons) and to add universal handles for the second stage of amplification (see table S3 for all deep sequencing primers). Applicants then used a second PCR step to add sequences needed for Illumina sequencing and sample barcoding. Applicants pooled all samples together and sequenced them on a MiSeq using a 250 bp single-end read (Illumina MS-102-2002).
Custom Python scripts were used for barcode demultiplexing and insertion-deletion (indel) length measurement. To measure indel length and eliminate any potential off-target or primer-dimer reads, Applicants first identified our genomic (first PCR step) primers in each read. Applicants then checked that each read contained at least 5 bases beyond each of the genomic primers. Typically, 80-90% of demultiplexed reads matched this criterion. Reads matching this criterion were used to measure indel length by comparing distances between the identified primer-adjacent sequences with those in the reference sequence. Further multiple alignment analysis for specific sgRNAs was done using Geneious's iterative k-mer multiple alignment tool (Geneious 6.1.7).

YY1 = assay: ChIP-ddPCR for YY1; settings: ChIP-ddPCR around cut site vs non-targeting sgRNA
Experimental: (§1) Chromatin Immunoprecipitation (ChIP) for Histone Modifications and Transcription Factors
(§2) After 7 days of puromycin selection, A375 cells transduced with individual lentiCRISPRv2 sgRNAs were plated in T-225 flasks and grown to 70-90% confluence (6 days). At this point, chromatin fixation was initiated by adding formaldehyde directly to the growth media (final concentration 1%) and incubating at 37° C. for 10 minutes. The entire two-day ChIP procedure was performed using the Magna ChIP HiSens Chromatin Immunoprecipitation Kit (Millipore 1710460), as specified in the manufacturer's protocol. […]
(§3) Using BatchPrimer3, Applicants designed primers centered on the sgRNA target site with a target amplicon size of 80-120 bp (see table S4 for ChIP-ddPCR primers). Droplet digital PCR (ddPCR) reactions using EvaGreen (BioRad 1864034) were used to quantify changes between input, histone/TF ChIP, and IgG ChIP samples for A375 cells transduced with specific sgRNAs and untransduced A375 cells. […] Applicants calculated the percent change in ChIP signal after genome editing by normalizing each ChIP sample to its corresponding input sample and then comparing the normalized ChIP between A375s transduced with specific sgRNAs and untransduced (control) A375 cells.

CTCF = assay: ChIP-ddPCR for CTCF; settings: ChIP-ddPCR at the site after editing
Experimental: as §1, §2, §3

ZNF263 = assay: ChIP-ddPCR for ZNF263; settings: ChIP-ddPCR vs non-targeting sgRNA
Experimental: as §1, §2, §3

FOS = assay: ChIP-ddPCR for FOS; settings: ChIP-ddPCR compared with control cells
Experimental: as §1, §2, §3

JUN = assay: ChIP-ddPCR for JUN; settings: ChIP-ddPCR compared with control cells
Experimental: as §1, §2, §3

| Substance | CUL3 expression (CUL3) | decrease in CUL3 expression (CUL3) [%] | ZNF263 occupancy (ZNF263) | FOS binding (FOS) | JUN binding (JUN) | further results |
| --- | --- | --- | --- | --- | --- | --- |
| 5′-UTR sg2: validation sgRNA GCGCTCCTCCGCGATGGCGG, SEQ ID NO 456, 5′ UTR (expressed or natural sequence) | significantly decrease |  |  |  |  | indel mutations that damage a YY1 binding motif ([1]; A375, vemurafenib vs DMSO control, 4 days): more indel mutations that damage a YY1 binding motif; decrease of YY1 binding (YY1): 67% |
| CTCF sg1: validation sgRNA GCCACAGCCATGCCCAGTOG, SEQ ID NO 446, 3′ of CUL3 (guide GCCACAGCCATGCCCAGTGG; expressed or natural sequence) |  | 30 |  |  |  | mean indel size ([1]; A375, deep sequencing of the site): −9.5 bp; amplicons / alleles containing insertion-deletion (indel) mutations ([1]; A375 after 7 days selection): 96%; decrease of CTCF occupancy (CTCF): 45% |
| Intron-sg1: validation sgRNA TCCGCGGCTGCTAGCAGCGC, SEQ ID NO 454, intron and promoter (expressed or natural sequence) | decrease in CUL3 expression |  | significant decrease |  |  |  |
| Intron-sg2: validation sgRNA CGCGGAGTCCTCCCTGTGTG, SEQ ID NO 455, intron and promoter (expressed or natural sequence) | decrease in CUL3 expression |  | significant decrease |  |  |  |
| distal 3′ sg1: validation sgRNA AGOACACAGTCATAACCACA, SEQ ID NO 445, 3′ of CUL3 (guide AGCACACAGTCATAACCACA; expressed or natural sequence) |  | ~25 |  | decreased | decreased |  |
| distal 3′ sg2: validation sgRNA GCAGCGTCCGGAGTTGGCAC, SEQ ID NO 444, 3′ of CUL3 (expressed or natural sequence) |  | ~25 |  | decreased | decreased |  |
